# Laboratory results published in patent US11274131B2, “IgM-mediated receptor clustering and cell modulation” (MAYO FOUNDATION FOR MEDICAL EDUCATION AND RESEARCH, priority 2007, dated 2022).
# System: human DC
# Test: Immunoblot of phosphorylation of signaling intermediates in human DC
# Format: cell-based
# Experimental: FIGS. 2A to 2G are a series of pictures showing that a kinase activated pathway regulates antibody-induced antigen uptake by matured DC. Matured human monocyte-derived DC were treated with the MTAb B7-DC XAb for varying time periods and evaluated for the phosphorylation status of select signaling pathway intermediates by immunoprecipitation with DAP12 (MC457), Syk (4D10), and PLCγ1 (MC490) reactive antibodies followed by western blot analysis using the phosphotyrosine reactive antibody 4G10 as a probe (FIGS. 2A-2C). Samples of the cells blocked with indicated concentration of piceatannol (FIG. 2D) or with […] of piceatannol (FIG. 2E) were analyzed for phosphorylation of Syk (FIG. 2D) and PLCγ1 (FIG. 2E). To investigate the functional importance of these signaling intermediates in the regulation of antigen uptake by matured DC activated with B7-DC XAb, varying concentrations of pharmacologic inhibitors were used to block the activity of p72Syk (piceatannol) and PLCγ1 (U73122) (FIGS. 2F and 2G, respectively). Antigen uptake was assessed by pulsing cultures with FITC-conjugated ovalbumin and measuring intracellular fluorescence 16 hours later in CD11c positive cells by flow cytometry.
# In experiments involving assessment of the phosphorylation status of various protein kinases using whole cell lysate, dendritic cells of mouse or human origin or Jurkat cells were stimulated at the indicated times with control antibody or B7-DC XAb, and were lysed on ice for 10 minutes in 1 ml buffer containing 20 mM Tris-HCl, 40 mM NaCl, 5 mM EDTA, 50 mM NaF, 30 mM Na4P2O7, 0.1% BSA, 1 mM Na3VO4, 1 mM PMSF, 5 μg/ml aprotinin, 10 μg/ml leupeptin, and 1% Triton X-100. Cellular debris was removed by centrifugation at 20,800×g for 5 minutes at 4° C. and the supernatant was used in SDS-PAGE analysis for phosphorylated tyrosine proteins. For immunoprecipitation, antibody against mouse Syk (4D10) or PLC yl (MC490) or DAP12 (MC457) at 10 μg per sample was bound to protein A-Sepharose beads at 4° C. for 2 hours under constant rotation. Supernatants from cell lysate after stimulation were incubated with antibody coupled beads for 2 hours at 4° C. with constant rotation. […] Tyrosine-phosphorylated proteins were detected using the anti-phosphotyrosine specific antibody, 4G10, followed by goat anti-mouse IgG coupled to Horse Radish Peroxidase (Santa Cruz Biotechnology) and the SuperSignal detection system (Pierce Biotechnology, Rockford, Ill.). […] The supernatants were resolved by SDS-PAGE, probed with anti-mouse TREM-2 antibody (237920) and detected by Goat-anti mouse antibody coupled to HRP, or probed with affinity purified anti-mouse CD40 (1C10) and detected by Goat-anti mouse antibody coupled to HRP.
substance,measurement,setting,value
B7-DC XAb: human monoclonal IgM from a Waldenstrom's macroglobulinemia patient that binds and cross-links B7-DC on DC,phosphorylation of PLCγ1,human DC,concomitant with the phosphorylation of PLCγ1
same,phosphorylation of cellular proteins,human DC treated with antibody,induced as early as one minute after treatment
same,phosphorylation of DAP12,"human DC, cross-linking B7-DC",rapidly phosphorylated
same,phosphorylation of Syk,"human DC, immunoprecipitated Syk",revealed phosphorylation of the protein tyrosine kinase
